From ChEMBL document CHEMBL5352397, “Exploring gabosine and chlorogentisyl alcohol derivatives from a marine-derived fungus as EcGUS inhibitors with informatic assisted approaches” (Eur J Med Chem, 2022)
pIC50, pKi: −log10 of the molar value. Activity calls are given as the source filed them. No cut-off for these calls is given here.

How the values were obtained:
NAMALVA = assay: Antiproliferative activity against human NAMALVA cells assessed as cell viability at 20 uM incubated for 48 hrs by MTT assay; type: functional; conditions: read-out: Activity
Beta-glucuronidase [1] = biological target: T1, Beta-glucuronidase (Escherichia coli (strain K12), UniProt P05804); assay: Non-competitive inhibition of Escherichia coli beta-glucuronidase assessed as inhibition constant using beta-PNPG as substrate incubated for 30 mins by Lineweaver-Burk plot analysis
[2] = biological target: Beta-glucuronidase (Escherichia coli (strain K12)) (UniProt P05804); assay: Non-competitive inhibition of Escherichia coli beta-glucuronidase assessed as reduction of p-nitrophenol release using beta-PNPG as substrate at 10 uM incubated for 30 mins by Spectra max microplate reader analysis relative to control
Beta-glucuronidase [3] = biological target: T1, Beta-glucuronidase; assay: Non-competitive inhibition of Escherichia coli beta-glucuronidase assessed as reduction of p-nitrophenol release using beta-PNPG as substrate incubated for 30 mins by Spectra max microplate reader analysis
[4] = Antiproliferative activity against human U266B cells assessed as cell viability at 20 uM incubated for 48 hrs by MTT assay; type: functional; conditions: read-out: Activity
[5] = biological target: Beta-glucuronidase (Escherichia coli (strain K12)) (UniProt P05804); assay: Inhibition of Escherichia coli beta-glucuronidase assessed as reduction of p-nitrophenol release using beta-PNPG as substrate at 10 uM incubated for 30 mins by Spectra max microplate reader analysis relative to control
Beta-glucuronidase [6] = biological target: T1, Beta-glucuronidase; assay: Inhibition of Escherichia coli beta-glucuronidase assessed as inhibition constant using beta-PNPG as substrate incubated for 30 mins by Lineweaver-Burk plot analysis
Beta-glucuronidase [7] = biological target: T1, Beta-glucuronidase; assay: Inhibition of Escherichia coli beta-glucuronidase assessed as reduction of p-nitrophenol release using beta-PNPG as substrate incubated for 30 mins by Spectra max microplate reader analysis
[8] = biological target: Beta-glucuronidase (Escherichia coli (strain K12)) (UniProt P05804); assay: Inhibition of Escherichia coli beta-glucuronidase using beta-PNPG as substrate at 50 to 100 uM incubated for 30 mins by Lineweaver-Burk plot analysis; conditions: dose 50-100 µM
[9] = biological target: Beta-glucuronidase (Escherichia coli (strain K12)) (UniProt P05804); assay: Inhibition of Escherichia coli beta-glucuronidase using beta-PNPG as substrate at 2 to 8 uM incubated for 30 mins by Lineweaver-Burk plot analysis; conditions: dose 2-8 µM

T1 sequence (P05804 whole entry): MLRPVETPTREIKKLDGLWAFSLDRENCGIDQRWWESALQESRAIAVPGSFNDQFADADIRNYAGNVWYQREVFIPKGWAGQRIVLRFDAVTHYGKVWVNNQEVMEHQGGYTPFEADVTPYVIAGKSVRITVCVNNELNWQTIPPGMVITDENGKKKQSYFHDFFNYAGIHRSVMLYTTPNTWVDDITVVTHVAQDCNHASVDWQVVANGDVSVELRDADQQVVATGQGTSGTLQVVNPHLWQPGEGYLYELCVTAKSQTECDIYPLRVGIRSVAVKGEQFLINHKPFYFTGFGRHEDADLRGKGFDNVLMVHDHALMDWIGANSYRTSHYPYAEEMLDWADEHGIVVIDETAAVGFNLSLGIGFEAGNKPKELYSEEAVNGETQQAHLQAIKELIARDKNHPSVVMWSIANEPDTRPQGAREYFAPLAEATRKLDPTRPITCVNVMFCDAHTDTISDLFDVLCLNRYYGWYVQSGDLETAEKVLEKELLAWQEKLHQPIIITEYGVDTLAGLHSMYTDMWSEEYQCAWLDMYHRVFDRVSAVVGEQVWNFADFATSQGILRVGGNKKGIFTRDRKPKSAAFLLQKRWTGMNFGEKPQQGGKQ
Beta-glucuronidase (Escherichia coli (strain K12)), sequence (P05804 whole entry, looked up): as the sequence (P05804 whole entry) above

CCC1=C[C@@H](O)[C@@H](O)[C@H](Cl)C1=O
viability at 20 µM (NAMALVA): 79.2% | pKi (Beta-glucuronidase [1]): 5.90 | inhibition [2]: 99.1% | pIC50 (Beta-glucuronidase [3]): 5.90 | viability at 20 µM [4]: 96.3%

Cc1cc(O)c(Cc2cc(O)cc(Cl)c2O)c(=O)o1
inhibition [5]: 20.1%

Oc1cc(Cl)c(O)c(COCc2cc(O)cc(Cl)c2O)c1
viability at 20 µM (NAMALVA): 56.6% | pKi (Beta-glucuronidase [6]): 6.15 | viability at 20 µM [4]: 88.6% | inhibition [5]: 101% | pIC50 (Beta-glucuronidase [7]): 6.24

O=C1C(Cl)=C[C@H](O)[C@@H](O)[C@]12CCc1cc(O)cc(Cl)c1O2
inhibition [5]: 49.9%

O=C(O)c1cc(=O)c2ccccc2[nH]1
inhibition [5]: 10.8%

Cc1cccc(O)c1C(=O)O[C@@H]1C(=O)C(CO)=C[C@@H](O)[C@H]1O
inhibition [5]: 27.6%

O=C(O)[C@@H](O)[C@H]1OC(=O)[C@H](O)[C@H]1O [D-SACCHARIC ACID 1,4-LACTONE]
inhibition [8]: Active | inhibition [5]: 11.6% | pIC50 (Beta-glucuronidase [7]): 4.25

Cc1cc2c(c(=O)o1)C[C@@H]1C(=O)C(Cl)=C[C@H](O)[C@H]1O2
inhibition [5]: 55.1%

C[C@H]1C[C@H](O)[C@@H](OCc2cc(O)cc(Cl)c2O)C[C@H]1O
viability at 20 µM (NAMALVA): -3.03% | pKi (Beta-glucuronidase [6]): 5.46 | viability at 20 µM [4]: 7.86% | inhibition [5]: 91.8% | pIC50 (Beta-glucuronidase [7]): 6.40 | inhibition [9]: Active

O=C(OCc1cc(O)cc(Cl)c1O)c1cnccc1O
viability at 20 µM (NAMALVA): 39.4% | pKi (Beta-glucuronidase [6]): 5.81 | viability at 20 µM [4]: 94.9% | inhibition [5]: 87.9% | pIC50 (Beta-glucuronidase [7]): 5.71

Cc1cc2c(c(=O)o1)C[C@H]1[C@@H](O)[C@H](O)[C@H](O)[C@H]3c4c(cc(C)oc4=O)O[C@]31O2
inhibition [5]: 5.16%

O=C1C(Cl)=C[C@H](O)[C@H](O)[C@@]12CCc1cc(O)cc(Cl)c1O2
viability at 20 µM (NAMALVA): -0.33% | pKi (Beta-glucuronidase [6]): 5.35 | viability at 20 µM [4]: 52.6% | inhibition [5]: 86.3% | pIC50 (Beta-glucuronidase [7]): 5.67

O=C1C(Cc2cc(O)cc(Cl)c2O)=C[C@H](O)[C@@H](O)[C@@]12CCc1cc(O)c(Cl)c(Cl)c1O2
viability at 20 µM (NAMALVA): 83.9% | pKi (Beta-glucuronidase [6]): 5.96 | viability at 20 µM [4]: 95% | inhibition [5]: 98% | pIC50 (Beta-glucuronidase [7]): 6.62 | inhibition [9]: Active

C[C@H]1C[C@H](OCc2cc(O)cc(Cl)c2O)[C@@H](O)C[C@H]1O
viability at 20 µM (NAMALVA): 71.7% | pKi (Beta-glucuronidase [6]): 5.37 | viability at 20 µM [4]: 77.8% | inhibition [5]: 92.1% | pIC50 (Beta-glucuronidase [7]): 6.19

COCc1cccc(Cl)c1O
inhibition [5]: 7.73%

O=C1C(COCc2cc(O)cc(Cl)c2O)=C[C@@H](O)[C@@H](O)[C@@H]1Cl
viability at 20 µM (NAMALVA): 65.1% | pKi (Beta-glucuronidase [6]): 6.07 | viability at 20 µM [4]: 105% | inhibition [5]: 87.1% | pIC50 (Beta-glucuronidase [7]): 5.72

O=C1C(Cl)=C[C@H](O)[C@@H](O)[C@@]12CCc1cc(O)cc(Cl)c1O2
viability at 20 µM (NAMALVA): 37% | pKi (Beta-glucuronidase [6]): 5.94 | viability at 20 µM [4]: 79.6% | inhibition [5]: 96.5% | pIC50 (Beta-glucuronidase [7]): 5.55

C[C@@H]1C[C@@H](O)[C@H](O[C@@H]2[C@@H](O)C=C(Cl)C(=O)[C@]23CCc2cc(O)cc(Cl)c2O3)C[C@@H]1O
inhibition [5]: 15.3%

CO[C@@H]1[C@@H](O)C=C(Cl)C(=O)[C@]12CCc1cc(O)cc(Cl)c1O2
viability at 20 µM (NAMALVA): 58.3% | pKi (Beta-glucuronidase [6]): 5.58 | viability at 20 µM [4]: 84.9% | inhibition [5]: 98.4% | pIC50 (Beta-glucuronidase [7]): 5.85

C[C@H]1C[C@H](O)[C@@H](O)C[C@H]1OCc1cc(O)cc(Cl)c1O
viability at 20 µM (NAMALVA): 71.6% | pKi (Beta-glucuronidase [6]): 5.79 | viability at 20 µM [4]: 115% | inhibition [5]: 92.8% | pIC50 (Beta-glucuronidase [7]): 6.20

CCCCO[C@@H]1C(=O)C(C)=C[C@@H](O)[C@H]1O
viability at 20 µM (NAMALVA): 91.7% | pKi (Beta-glucuronidase [6]): 5.14 | viability at 20 µM [4]: 109% | inhibition [5]: 86.5% | pIC50 (Beta-glucuronidase [7]): 5.34

OCc1cc(O)cc(Cl)c1O
viability at 20 µM (NAMALVA): 70.4% | pKi (Beta-glucuronidase [1]): 6.24 | inhibition [2]: 101% | pIC50 (Beta-glucuronidase [3]): 6.13 | viability at 20 µM [4]: 94.1%

CC1=C[C@@H](O)[C@@H](O)[C@H](Cl)C1=O
viability at 20 µM (NAMALVA): 113% | pKi (Beta-glucuronidase [6]): 6.17 | viability at 20 µM [4]: 105% | inhibition [5]: 100% | pIC50 (Beta-glucuronidase [7]): 6.00

O=Cc1cc(O)cc(Cl)c1O
inhibition [5]: 69%

CCCCOCC1=C[C@@H](O)[C@@H](O)[C@H](O)C1=O
inhibition [5]: 39.3%

Cc1cc2c(c(=O)o1)C[C@H]1C(=O)[C@@H](O)[C@H](O)[C@H](O)[C@H]1O2
inhibition [5]: 25.6%

O=c1[nH]cc(F)c(=O)[nH]1 [FLUOROURACIL]
viability at 20 µM (NAMALVA): 11.3% | viability at 20 µM [4]: 0%
